# In patent US9132118B2, “Taxane analogs for the treatment of brain cancer” (Tapestry Pharmaceuticals, Inc., priority 2007, dated 2015):
# “Also recorded” adds a separate entry of the source.
# Assays:
# [1] = S-(1) Injection mouse PK parameters, IV and oral; format: in vivo
# [2] = system: bovine microtubule protein (tubulin plus microtubule associated proteins); test: In vitro ED50 MT polymerization study (DAPI fluorescence tubulin assay); format: biochemical
# Method: In this tubulin binding assay, microtubule protein (MTP) is used as a substrate. The assay contains bovine tubulin plus microtubule associated proteins (MAP). MTP is polymerized into microtubules in the presence of DAPI (4′,6′-diamidino-2-phenylindole), a fluorescent compound. DAPI binds to tubulin; when microtubules are formed and there is an enhancement of fluorescence. The microtubule formation is measured as a function of time, using a fluorescence plate reader. […] The method used is based on the procedure published by Donna M. Barron, et al, “Fluorescence-based high-throughput assay for antimicrotuble drugs” Analytical Biochemistry, 315: 49-56, 2003, which is incorporated by reference in its entirety. The excitation wavelength, in that assay, was set at 370 nm and the emission wavelength was set at 450 nm for the DAPI experiments.
# A Bio-Tek FL 600 microplate Fluorescence Reader was used to measure the relative level of fluorescence in the DAPI assay.
# Assays were conducted in 96-well plates. […] The final DMSO concentration was 4%. The plates were incubated at 37° C. for 30 minutes and read in a fluorescence plate reader using an excitation wavelength of 360 nm and an emission wavelength of 460 nm. Fluorescence values were corrected for the sample without compound. […] Experiments were done twice in triplicate. Results were subsequently combined and fit to a non-linear regression program.
# [3] = S-(1) rat oral bioavailability, formulations evaluated in vivo
# Method: IV formulation (Cremophor El P/alcohol) and a suspension of the compound of Formula S-(1) in aqueous medium: Several studies were performed to investigate specific parameters.
# Using the 50:50 CremophoπEthanol formulation as a case study (AUC last: 2540; norm AUCinf: 477), F was calculated from the ratio of the normalized PO and IV AUCs: F(%)=norm. AUC PO/norm. AUC IV.
# [4] = Phase 1 Study S-(1)-01, i.v. weekly x3 in a 28-day cycle, safety and pharmacokinetics; format: in vivo, patients; conditions: for AUC0-24 / Cl / Vss / t1/2: Study S-(1)-01 (50:50 Cremophor EL-P/ethanol), i.v., first dose
# Method: Both trials have enrolled patients with advanced solid tumors, non-Hodgkin's lymphoma or Hodgkin's lymphoma that have recurred or progressed following at least standard therapy; patients with malignancies for which there is no standard therapy; patients who are not candidates for standard therapy; or patients who have chosen not to pursue standard therapy.
# Plasma pharmacokinetics of S-(1) were assessed following the first dose of S-(1) in both studies. Plasma samples were analyzed for S-(1) using a validated LC/MS-MS method.
# Treatment cohorts consisted of 3 pts and were expanded to 6 pts in the face of dose-limiting toxicity (DLT); pts could remain on study until the development of progressive disease or an intolerable adverse event. DLT was defined as Gr 4 heme toxicity lasting 7 days; febrile neutropenia, Gr 3 thrombocytopenia with bleeding, Gr 3 elevation of transaminases lasting 7 days or any other Gr 3/4 toxicity other than nausea or vomiting. Results: 25 pts (M:F 16:9, median age 60, range 24-86) were enrolled in 7 dose levels ranging from 7-185 mg/m^2. Pts' cancers included colorectal (6 pts); NSCLC (2); prostate (2); squamous cell carcinoma (2) and 1 pt each with cervical, breast, ovarian, gastric, pancreatic, bladder endometrial, NSCLC, SCLC, glioblastoma, melanoma, renal cell and hepatocellular carcinoma.
# [5] = weekly study summary, dose of 127.5 mg/m^2
compound,measurement,setting,value
C=C[C@H]1O[C@H]2CC3OC[C@@]3(OC(C)=O)[C@H]3[C@H](OC(=O)c4ccccc4)[C@]4(C(C)(C)O)C[C@H](OC(=O)[C@H](O)[C@H](CC(C)C)NC(=O)OC(C)(C)C)C(C)=C4[C@H](OC(C)=O)[C@H](O1)[C@]23C (stereo partly drawn) [S-(1)],AUCinf,[1]; IV 10/mg/kg,7.738 µM·h
same,AUClast,[1]; IV 10/mg/kg,6.298 µM·h
same,CL,[1]; IV 10/mg/kg,24.8 mL/min/kg
same,Vdss,[1]; IV 10/mg/kg,13.35 L/kg
same,t½,[1]; IV 10/mg/kg,6.1 h
same,AUCinf,[1]; Oral 10 mg/kg,3.609 µM·h
same,AUClast,[1]; Oral 10 mg/kg,3.434 µM·h
same,Cmax,[1]; Oral 10 mg/kg,460 nM
same,t½,[1]; Oral 10 mg/kg,5.1 h
same,F,[1]; Oral 10 mg/kg vs IV,47%
same,Tmax,"[1]; in vivo, Oral 10 mg/kg",6 h
same,ED50 Compound/ED50 Paclitaxel,[2]; ratio of tubulin polymerization ED50 values,0.53
same,EC50,"[2]; tubulin polymerization, 37° C. 30 minutes, percent of maximum assembly at 25 μM paclitaxel",1580 ± 460 nM
same,difference in F with different formulations (in words),[3],no significant difference in F with different formulations
same,bioavailability,"[3]; in vivo, using a cremophor-free formulation as reference, read-out: effective F (real bioavailability)",60 to 70%
same,AUC0-24,"[4]; 14 mg/m^2, plasma",457 ± 297 ng·h/mL
same,Cl,"[4]; 14 mg/m^2, plasma",35.5 ± 29.7 L/hr/m^2
same,Vss,"[4]; 14 mg/m^2, plasma",23.2 ± 74.5 L/m^2
same,t1/2,"[4]; 14 mg/m^2, plasma",8.4 ± 11.5 h
same,AUC0-24,"[4]; 28 mg/m^2, plasma",682 ± 322 ng·h/mL
same,Cl,"[4]; 28 mg/m^2, plasma",43.5 ± 14.5 L/hr/m^2
same,Vss,"[4]; 28 mg/m^2, plasma",309 ± 161 L/m^2
same,t1/2,"[4]; 28 mg/m^2, plasma",3.45 ± 1.09 h
same,AUC0-24,"[4]; 56 mg/m^2, plasma",2070 ± 888 ng·h/mL
same,Cl,"[4]; 56 mg/m^2, plasma",28.6 ± 13.2 L/hr/m^2
same,Vss,"[4]; 56 mg/m^2, plasma",216 ± 70 L/m^2
same,t1/2,"[4]; 56 mg/m^2, plasma",5.66 ± 3.63 h
same,AUC0-24,"[4]; 85 mg/m^2, plasma",5970 ± 3900 ng·h/mL
same,Cl,"[4]; 85 mg/m^2, plasma",16.6 ± 9.26 L/hr/m^2
same,Vss,"[4]; 85 mg/m^2, plasma",142 ± 75.6 L/m^2
same,t1/2,"[4]; 85 mg/m^2, plasma",5.52 ± 5.26 h
same,AUC0-24,"[4]; 127.5 mg/m^2, plasma",4460 ± 2140 ng·h/mL
same,Cl,"[4]; 127.5 mg/m^2, plasma",30.2 ± 11.9 L/hr/m^2
same,Vss,"[4]; 127.5 mg/m^2, plasma",239 ± 116 L/m^2
same,t1/2,"[4]; 127.5 mg/m^2, plasma",6.59 ± 2.60 h
same,dose limiting toxicity,"[4]; Study S-(1)-01, i.v. weekly ×3, observed in one patient at 185 mg/m^2",Grade 3 sensory neuropathy; also recorded: Grade 3 peripheral neuropathy
same,half-life,"[4]; both sexes, human, plasma, intravenous, Study S-(1)-01, after first dose, read-out: Plasma t1/2, range over dose groups",3.45 to 8.4 h
same,dose dependence of AUC (in words),[4]; weekly study,generally dose linear
same,clearance,[4]; [5],30.2+11.9 L/hr/m^2
same,tm,[4]; [5],8.6+1.3 hrs
same,anti-neoplastic activity,"[4]; weekly study, patients with advanced neoplasms",Anti-neoplastic activity was seen in a patient with pancreatic cancer
same,drug related adverse events,"[4]; weekly ×3 then 1 week rest, 7-185 mg/m^2, 25 pts","nausea, vomiting, diarrhea, fatigue, anorexia, rash, anemia and peripheral neuropathy"
same,dose that can be safely administered,[4]; weekly×3 in heavily pre-treated patients,up to 185 mg/m^2
